Results taken from patent US8598132B2, “Glycosylated indolocarbazoles, method for obtaining same and uses thereof” (Universidad de Oviedo, priority 2008, dated 2013).

Molecular target: T1, FLT3 (Homo sapiens, UniProt P36888)
T1 construct: purchased Upstate
T1 sequence (P36888 27-993): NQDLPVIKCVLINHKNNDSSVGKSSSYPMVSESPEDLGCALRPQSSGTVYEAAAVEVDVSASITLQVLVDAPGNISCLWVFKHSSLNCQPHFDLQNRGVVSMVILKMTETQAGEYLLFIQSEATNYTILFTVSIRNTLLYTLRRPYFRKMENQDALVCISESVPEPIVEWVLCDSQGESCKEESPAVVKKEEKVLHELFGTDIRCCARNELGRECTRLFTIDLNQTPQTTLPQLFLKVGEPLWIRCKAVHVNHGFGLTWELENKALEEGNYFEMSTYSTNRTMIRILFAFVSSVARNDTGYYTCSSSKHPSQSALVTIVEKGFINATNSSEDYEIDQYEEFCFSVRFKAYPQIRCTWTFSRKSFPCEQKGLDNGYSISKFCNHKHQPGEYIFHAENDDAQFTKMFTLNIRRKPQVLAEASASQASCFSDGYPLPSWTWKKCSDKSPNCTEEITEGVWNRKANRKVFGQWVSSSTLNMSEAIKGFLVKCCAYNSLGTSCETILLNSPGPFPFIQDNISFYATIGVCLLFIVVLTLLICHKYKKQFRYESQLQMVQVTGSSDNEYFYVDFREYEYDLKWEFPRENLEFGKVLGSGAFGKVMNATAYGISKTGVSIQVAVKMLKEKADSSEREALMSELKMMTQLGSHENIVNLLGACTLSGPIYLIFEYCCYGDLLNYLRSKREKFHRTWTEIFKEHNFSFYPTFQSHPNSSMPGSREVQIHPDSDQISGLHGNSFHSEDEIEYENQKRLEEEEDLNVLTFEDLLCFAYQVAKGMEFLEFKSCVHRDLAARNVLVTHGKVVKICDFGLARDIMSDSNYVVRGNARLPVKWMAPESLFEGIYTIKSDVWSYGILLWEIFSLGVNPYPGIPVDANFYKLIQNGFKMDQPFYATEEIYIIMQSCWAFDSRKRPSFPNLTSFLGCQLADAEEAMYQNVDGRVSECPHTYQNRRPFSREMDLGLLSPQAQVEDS
Experiment: LabChip (Caliper) kinase assay, FLT3
Assay type: biochemical
Conditions: for inhibition at 0.01 µM / inhibition at 0.1 µM: FLT3, read-out: remaining kinase activity (in %) / percentage of inhibition; for inhibition at 0.01 µM: compound at 10 nM; for inhibition at 0.1 µM: compound at 100 nM; for IC50: Ftl3, ATP at Km, read-out: CI50 (the source's name)
Method: The analysis of kinase activity described here was performed using LabChip (Caliper Life Sciences), specifically the Caliper LC3000 and the EZ Reader II instruments.
The kinase assay used measures the conversion of a fluorescent peptide (substrate) to a phosphorylated product. The reaction mixture, in a microplate well, is introduced by a capillary in a chip where the non-phosphorylated substrate and the phosphorylated product are separated by […]. The intensity of the fluorescent signal over time is related to the reaction progress. The phosphorylated product migrates quicker than the non-phosphorylated substrate and the signals of the two forms of the peptide appear as differentiated peaks. The Caliper determines the peak height and calculates the ratio of product to the peak sum (P/(P+S)). This value is used to compare wells with compounds and wells with controls and thus determine the % of inhibition for the given product.
The followings kinases were used for the enzymatic inhibition studies, between brackets the value of the Michaelis-Menten constant, Km, of the ATP (Adenosine triphosphate) for each kinase, in μM: obtained from Carna Biosciences: MAPKAPK2 (4.6), AurA (3.6), AurB (5), PKCζ (3.8), RSK1 (23.3), PRAK (5), Erk1 (33.4), PKD2 (32.1), CK1d (16.3), CHK1 (33), ABL (61.7), FYN (36), LYNa (17), CHK2 (57.8), MET (79.5), LCK (28.5), SRC (38), GSK3β (7.3), Erk2 (62.1), PKACα (1.7), AKT2 (186.1), INSR (871.8), p38a (396.5), AKT1(48), MSK1 (21.2), PKCβ2 (84.8), ROCK2 (3.3), PIM2 (4.9), AMPK (38.6), KDR (164.8), IRAK4 (196.5), SGK1 (121.8), SYK (33.5); obtained from Invitrogen: CDK2 (57.6), BTK (123), HGK (80); obtained from Upstate: MST2 (36.6), PKGα (16), PAK2 (1.9), IGF1R (320), FGFR1 (171), MARK1 (33), CAMK2δ (22.4), c-TAK1 (66), DYRK1a (18.1), CaMK4 (3.9), FLT3 (350), c-Raf (6.2), P70S6K (95).
The compounds were dissolved in 100% DMSO and were diluted at 25 times the final concentration desired for the assay. In the case of the determination of Cl50, serial dilutions were made to reach eight concentrations and give rise to the inhibition curve. 1 μL of each concentration is transferred, in duplicate to a 384-well microplate. 12 μL of enzymatic buffer is added to each well containing purified kinase (several suppliers as indicated above), 100 mM HEPES, pH 7.5, 1 mM DTT (Calbiochem), 0.002% Brij-35 (Sigma) and also in presence of 10 mM MgCl2 as cofactor, except for INSR and IRAK4 wherein 10 mM MnCl2 is used instead of MgCl2. For the kinases CAMK26 and CAMK4, 1 mM CaCl2 and 6.7 μg/mL of calmodulin are also added. For KDR kinase, 0.05% of the CHAPSO detergent is added. For the c-Raf kinase, 10 mM MnCl2 is added. For PKCβ2 0.02 μg/mL of PS/PMA is added. For PKGα se 10 μM of cGMP (cyclic guanosine monophosphate) is added. The compound and the enzyme are left for 15 minutes preincubation and, then, the following are added to each well: 12 μL of peptide buffer/ATP containing 100 mM HEPES, pH 7.5, 1.5 μM peptide marker with fluorescein (specific for the corresponding kinase), ATP (at concentration KM), and 0.002% Brij-35 to start the reaction. Generally, the reactions are incubated for 1-1.5 h at ambient temperature to obtain an adequate conversion (15-40%) of the peptide to the phosphorylated product. The reactions were ended by the addition of 45 μL of buffer containing 0 mM EDTA. The microplates were read by the LabChip 3000 using a 12-channel LabChip. The P/(P+S) values were obtained as described above and the CI50 curves were generated using XIfit.
Table 9a has the 0150 data obtained in pairs of compound-kinase selected from the compounds of formula (VII), (VIII), (IX), (XVI), (XVII) and (XVIII) after taking inhibition measurements at 100 nM and 10 nM. Those couples that provide >70% of inhibition at 10 nM were consider for measuring its IC50. […]

SMILES	inhibition at 0.01 µM	inhibition at 0.1 µM	IC50
C[C@@H]1O[C@@H](n2c3ccccc3c3c4c(c5c6ccccc6[nH]c5c32)C(=O)NC4=O)[C@H](O)[C@H](O)[C@H]1O [formula (III), N^13-1′-β-L-rhamnosylarcyriaflavin]	-10%	25%	
C[C@@H]1O[C@@H](n2c3ccccc3c3c4c(c5c6ccccc6[nH]c5c32)C(=O)NC4=O)C[C@H](O)[C@H]1O [formula (IV), N^13-1′-β-L-olivosylarcyriaflavin]	20%	81%	
C[C@]12O[C@H](C[C@@H](O)[C@H]1O)n1c3ccccc3c3c4c(c5c6ccccc6n2c5c31)C(=O)NC4=O [formula (IX), N^12-5′(S)-N^13-1′-(R)-L-digitoxosylarcyriaflavin]			0.43 nM
C[C@@H]1O[C@@H](n2c3ccccc3c3c4c(c5c6ccccc6[nH]c5c32)C(=O)NC4=O)C[C@@H](O)[C@H]1O [formula (V), N^13-1′-β-L-digitoxosylarcyriaflavin]	63%	95%	
C[C@H]1O[C@@H](n2c3ccccc3c3c4c(c5c6ccccc6[nH]c5c32)C(=O)NC4=O)C[C@@H](O)[C@@H]1O [formula (VI), N^13-1′-β-D-olivosylarcyriaflavin]	51%	98%	
C[C@]12O[C@H]([C@H](O)[C@H](O)[C@H]1O)n1c3ccccc3c3c4c(c5c6ccccc6n2c5c31)C(=O)NC4=O [formula (VII), N^12-5′(S)-N^13-1′-(R)-L-rhamnosylarcyriaflavin]			0.57 nM
C[C@]12O[C@H](C[C@H](O)[C@H]1O)n1c3ccccc3c3c4c(c5c6ccccc6n2c5c31)C(=O)NC4=O [formula (VIII), N^12-5′(S)-N^13-1′-(R)-L-olivosylarcyriaflavin]			0.56 nM
C[C@@H]1O[C@@H](n2c3ccccc3c3c4c(c5c6ccccc6[nH]c5c32)CNC4=O)[C@H](O)[C@H](O)[C@H]1O [formula (XII), N^13-1′-β-L-rhamnosyl-k252c]	-7%	35%	
C[C@@H]1O[C@@H](n2c3ccccc3c3c4c(c5c6ccccc6[nH]c5c32)CNC4=O)C[C@H](O)[C@H]1O [formula (XIII), N^13-1′-β-L-olivosyl-k252c]	34%	89%	
C[C@@H]1O[C@@H](n2c3ccccc3c3c4c(c5c6ccccc6[nH]c5c32)CNC4=O)C[C@@H](O)[C@H]1O [formula (XIV), N^13-1′-β-L-digitoxosyl-k252c]	20%	79%	
C[C@H]1O[C@@H](n2c3ccccc3c3c4c(c5c6ccccc6[nH]c5c32)CNC4=O)C[C@@H](O)[C@@H]1O [formula (XV), N^13-1′-β-D-olivosyl-k252c]	76%	106%	
C[C@]12O[C@H]([C@H](O)[C@H](O)[C@H]1O)n1c3ccccc3c3c4c(c5c6ccccc6n2c5c31)CNC4=O [formula (XVI), N^12-5′(S)-N^13-1′-(R)-L-rhamnosyl-k252c]			0.59 nM
C[C@]12O[C@H](C[C@H](O)[C@H]1O)n1c3ccccc3c3c4c(c5c6ccccc6n2c5c31)CNC4=O [formula (XVII), N^12-5′(S)-N^13-1′-(R)-L-olivosyl-k252c]			0.54 nM
